Measurements published in paper PMC12064818, “A general assay platform to study protein pharmacology using ligand-dependent structural dynamics” (Nature Communications, 2025).

Assays:
[1] = target: T1, FLuc-C-NLuc (firefly luciferase) (Photinus pyralis, UniProt P08659, form not given/L550V); test: Firefly luciferase (FLuc) enzymatic luminescence assay, FLuc-C-NLuc; type: biochemical; parameters: key to Enz: % normalized; no enzyme control = 100% inhibition, DMSO = 0; settings: Log[Compound]
Procedure: The enzyme activity of FLuc-N-HiBiT, FLuc-C-HiBiT, and FLuc-C-NLuc was measured similar to P. pyralis firefly luciferase (FLuc) as previously described. […] Compounds and controls were added to each plate as described in Supplementary Data 8 with a Hornet pintool system (Wako Automation). Compounds were incubated with respective enzymes for 30–60 min at room temperature protected from light and covered by solid metal lid to prevent evaporation. […] Luciferin was incubated with FLuc enzyme for 5 min before FLuc activity was then measured on a ViewLux CCD imager (PerkinElmer), with exposure times up to ten seconds with medium to high gain settings. Data were normalized to average no enzyme control as 100% enzyme inhibition and average DMSO neutral control. See Supplementary Table 4 for additional details.
Supplementary Table 4. Protocol for Firefly luciferase (FLuc) and NanoLuc (NLuc) enzymatic
Supplementary Table 4: Protocol for Firefly luciferase (FLuc) and NanoLuc (NLuc) enzym atic lum inescence assay
Firefly luciferase (FLuc) enzym atic lum inescence assay
Sequence Param eter Value Description
No enzym e control (colum n 1) and enzym e solution (1- 10 nM FLuc enzym e) in FLuc assay
1 Reagent 4 µLbuffer; white/solid bottom , m edium bind, high base plates (Greiner), dispensed with BioRaptr
com pounds transferred to respective colum ns with Pintool
2b Test Com pounds 23 nLconcentration range) in colum ns 5- 48; com pounds transferred to respective wells with
3 Incubation 30 m in Incubate enzym e + com pounds at am bient tem p for 30 m in, protected from light
4 Reagent 3 µLAdd 3 µL of D-luciferin substrate solution to each well (final concentration 10 µM); dispensed
5 Detector ViewLux Read plate lum inescence (Exposure = 1- 10 sec; Gain = Medium -high; Speed = Slow;
Dispensing solution was diluted in 1X PBS, pH 7.4. […]

[2] = target: T1, FLuc-C-NLuc (firefly luciferase); test: SDR assay, FLuc-C-NLuc; settings: Log[Compound]; for SDR+ATP: 10 mM ATP; for SDR: absence of ATP

T1 sequence (P08659 2-550 L550V, form open): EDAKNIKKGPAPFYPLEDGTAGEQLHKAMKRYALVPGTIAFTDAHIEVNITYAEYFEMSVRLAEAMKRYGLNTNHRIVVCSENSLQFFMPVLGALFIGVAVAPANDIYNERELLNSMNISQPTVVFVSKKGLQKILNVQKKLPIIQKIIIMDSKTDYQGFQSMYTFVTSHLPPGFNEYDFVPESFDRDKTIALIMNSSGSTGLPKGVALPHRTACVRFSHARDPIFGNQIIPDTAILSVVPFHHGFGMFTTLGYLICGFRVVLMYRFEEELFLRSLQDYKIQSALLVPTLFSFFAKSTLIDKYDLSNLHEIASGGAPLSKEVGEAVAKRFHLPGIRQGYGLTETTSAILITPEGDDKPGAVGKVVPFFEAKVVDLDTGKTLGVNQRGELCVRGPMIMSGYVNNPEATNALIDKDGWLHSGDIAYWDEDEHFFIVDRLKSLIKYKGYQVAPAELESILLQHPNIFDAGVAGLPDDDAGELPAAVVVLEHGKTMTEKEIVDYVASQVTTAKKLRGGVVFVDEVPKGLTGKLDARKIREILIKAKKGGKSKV

| SMILES | Enz ([1]; M -4.48) | Enz ([1]; M -4.96) | Enz ([1]; M -5.44) | Enz ([1]; M -5.91) | Enz ([1]; M -6.39) | Enz ([1]; M -6.87) | Enz ([1]; M -7.35) | Enz ([1]; M -7.82) | Enz ([1]; M -8.30) | Enz ([1]; M -8.78) | Enz ([1]; M -9.25) | SDR+ATP ([2]; M -4.48) | SDR ([2]; M -4.48) | SDR+ATP ([2]; M -4.96) | SDR ([2]; M -4.96) | SDR+ATP ([2]; M -5.44) | SDR ([2]; M -5.44) | SDR+ATP ([2]; M -5.91) | SDR ([2]; M -5.91) | SDR+ATP ([2]; M -6.39) | also measured |
| --- | --- | --- | --- | --- | --- | --- | --- | --- | --- | --- | --- | --- | --- | --- | --- | --- | --- | --- | --- | --- | --- |
| CC(NC(=O)C1CCN(C(=O)c2ncn3c2COC(c2ccc(F)cc2)C3)CC1)c1ccc(F)cc1 (stereo not drawn) [NCGC00449825] | -1.94 | 0.62 | 4.13 | 4.09 | 3.17 | 4.88 | 4.82 | 4.76 | 4.19 | 1.93 | -2.04 | 5.00 | 0.68 | 3.92 | 1.78 | 2.46 | 4.05 | 1.09 | 3.40 | 1.15 | SDR ([2]; M -6.39): 4.21; SDR+ATP ([2]; M -6.87): 0.36; SDR ([2]; M -6.87): 3.25; SDR+ATP ([2]; M -7.35): 2.57; SDR ([2]; M -7.35): 4.32; SDR+ATP ([2]; M -7.82): 1.95; SDR ([2]; M -7.82): 4.76; SDR+ATP ([2]; M -8.30): 0.0052; SDR ([2]; M -8.30): 4.00; SDR+ATP ([2]; M -8.78): 1.06; SDR ([2]; M -8.78): 4.68; SDR+ATP ([2]; M -9.25): -0.91; SDR ([2]; M -9.25): 3.86 |
| CC1CCC(NC(=O)C2CCN(C(=O)c3ncn4c3COC(c3ccc(Cl)cc3)C4)CC2)CC1 (stereo not drawn) [NCGC00449845] | -0.56 | 2.86 | 3.07 | 4.57 | 5.59 | 3.54 | 4.64 | 4.98 | 5.03 | 3.56 | 2.70 | 6.40 | 1.49 | 2.52 | 2.34 | 1.90 | 1.62 | 1.22 | 2.01 | 1.15 | SDR ([2]; M -6.39): 2.08; SDR+ATP ([2]; M -6.87): -0.36; SDR ([2]; M -6.87): 2.37; SDR+ATP ([2]; M -7.35): 0.68; SDR ([2]; M -7.35): 2.03; SDR+ATP ([2]; M -7.82): -0.0316; SDR ([2]; M -7.82): 3.50; SDR+ATP ([2]; M -8.30): 1.78; SDR ([2]; M -8.30): 4.33; SDR+ATP ([2]; M -8.78): 0.25; SDR ([2]; M -8.78): 3.88; SDR+ATP ([2]; M -9.25): 0.08; SDR ([2]; M -9.25): 3.41 |
| O=C(Nc1cccc(F)c1)C1CCN(C(=O)c2ncn3c2COC(c2ccccc2)C3)CC1 (stereo not drawn) [NCGC00449914] | -94.95 | -88.02 | -77.30 | -54.79 | -35.39 | -17.29 | -8.21 | -6.89 | -1.14 | 0.15 | -6.05 | 74.59 | 9.87 | 66.41 | 8.14 | 59.05 | 7.78 | 45.60 | 15.68 | 30.44 | SDR ([2]; M -6.39): 7.72; SDR+ATP ([2]; M -6.87): 16.83; SDR ([2]; M -6.87): 9.23; SDR+ATP ([2]; M -7.35): 11.29; SDR ([2]; M -7.35): 8.67; SDR+ATP ([2]; M -7.82): 8.00; SDR ([2]; M -7.82): 8.73; SDR+ATP ([2]; M -8.30): 7.51; SDR ([2]; M -8.30): 7.88; SDR+ATP ([2]; M -8.78): 6.04; SDR ([2]; M -8.78): 10.30; SDR+ATP ([2]; M -9.25): 5.78; SDR ([2]; M -9.25): 9.59 |
| COc1ccc(NC(=O)C2CCN(C(=O)c3ncn4c3COC(c3ccccc3)C4)CC2)cc1Cl (stereo not drawn) [NCGC00449919] | -93.84 | -85.33 | -72.77 | -49.98 | -32.08 | -7.65 | -0.43 | 7.65 | 6.82 | 6.26 | 2.02 | 74.73 | 14.81 | 70.92 | 15.10 | 66.79 | 16.90 | 50.80 | 12.53 | 35.23 | SDR ([2]; M -6.39): 11.82; SDR+ATP ([2]; M -6.87): 18.65; SDR ([2]; M -6.87): 11.53; SDR+ATP ([2]; M -7.35): 11.38; SDR ([2]; M -7.35): 9.61; SDR+ATP ([2]; M -7.82): 10.88; SDR ([2]; M -7.82): 14.00; SDR+ATP ([2]; M -8.30): 10.09; SDR ([2]; M -8.30): 12.41; SDR+ATP ([2]; M -8.78): 7.62; SDR ([2]; M -8.78): 12.26; SDR+ATP ([2]; M -9.25): 7.37; SDR ([2]; M -9.25): 12.55 |
